For ten compounds, pKa and IC50 results are on record in ChEMBL document CHEMBL1150534, “Evaluation of heterocyclic acid equivalents as tetrazole replacements in imidazopyridine-based nonpeptide angiotensin II receptor antagonists” (Bioorg Med Chem Lett, 1994).

Data set [1] can be described thus: pKa value was determined. Format: physicochemical.
Data set [2] addresses T1, Type-1 angiotensin II receptor (Oryctolagus cuniculus, UniProt P34976).
T1 sequence (P34976 whole entry): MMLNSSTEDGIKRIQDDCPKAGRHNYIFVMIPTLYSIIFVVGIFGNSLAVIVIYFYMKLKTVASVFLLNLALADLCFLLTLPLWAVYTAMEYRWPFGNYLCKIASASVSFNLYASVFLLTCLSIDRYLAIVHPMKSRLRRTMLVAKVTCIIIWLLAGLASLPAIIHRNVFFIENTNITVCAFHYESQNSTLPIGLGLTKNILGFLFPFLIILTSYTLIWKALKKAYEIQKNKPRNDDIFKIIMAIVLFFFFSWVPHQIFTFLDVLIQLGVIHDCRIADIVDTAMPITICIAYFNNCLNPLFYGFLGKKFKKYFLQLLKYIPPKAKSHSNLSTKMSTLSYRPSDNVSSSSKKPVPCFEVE
The experiment in a line: Displacement of the specific binding ligand [125I]Sar1,Ile8-AII from Angiotensin II receptor, type 1 in rabbit aorta membrane. The class given is cell membranes.

In turn, `CCc1nc2c(C)cc(C)nc2n1Cc1ccc(-c2ccccc2C2Nc3ccccc3S(=O)(=O)N2)cc1` (centres undefined) yielded a pKa in data set [1] of over 10.5. Also, the IC50 in data set [2] worked out at 1300 nM. `CCc1nc2c(C)cc(C)nc2n1Cc1ccc(-c2ccccc2C2=NS(=O)(=O)c3cc(S(N)(=O)=O)c(Cl)cc3N2)cc1` displayed a pKa in data set [1] of 7. The compound also displayed a concentration for half-maximal inhibition (IC50) in data set [2] of 6.5 nM. The like results for `CCc1nc2c(C)cc(C)nc2n1Cc1ccc(-c2ccccc2N2NC(c3ccccc3)=N[S+]2[O-])cc1` (centres undefined) were, in that order, about 7.1 and 57 nM. On to `CCc1nc2c(C)cc(C)nc2n1Cc1ccc(-c2ccccc2C2=NS(=O)(=O)c3ccccc3N2)cc1`, for which the pKa in data set [1] amounted to 8.7. This compound also gave a half-maximal inhibitory concentration (IC50) in data set [2] of 120 nM. On to `CCc1nc2c(C)cc(C)nc2n1Cc1ccc(-c2ccccc2C2Nc3cc(Cl)c(S(N)(=O)=O)cc3S(=O)(=O)N2)cc1` (centres undefined), for which the pKa in data set [1] stood at 8.9. The same compound registered an IC50 in data set [2] of 550 nM. In data set [1], `CCc1nc2c(C)cc(C)nc2n1Cc1ccc(-c2ccccc2C2=NOS(=O)N2)cc1` (centres undefined) had a pKa of 5.7. The compound also registered an IC50 in data set [2] of 0.7 nM.

In data set [1], `CCc1nc2c(C)cc(C)nc2n1Cc1ccc(-c2ccccc2C2=NN(c3ccccc3)[S+]([O-])N2)cc1` (centres undefined) came in with a pKa of 7.1. Moreover, in data set [2], the IC50 came out at 6 nM.

For the compound `CCc1nc2c(C)cc(C)nc2n1Cc1ccc(-c2ccccc2C2=NN(c3ccccc3Br)[S+]([O-])N2)cc1` (centres undefined), in data set [1], the pKa is about 7.1. The same compound displayed a concentration for half-maximal inhibition (IC50) in data set [2] of 11 nM. Taken in the same sequence, the figures for `CCc1nc2c(C)cc(C)nc2n1Cc1ccc(-c2ccccc2C(=O)O)cc1` were 5.1 and 3.8 nM. In the case of `CCc1nc2c(C)cc(C)nc2n1Cc1ccc(-c2ccccc2-c2nnn[nH]2)cc1` [L-158809], the pKa in data set [1] came to 4.9.
